PubChem BioAssay AID1963837 (Molecular Pharmacology Branch, DTP, NCI, 2024)
pIC50: −log10 of the molar value.

Test system: 843126-344-R-J1-PDC complex spheroid viability
Test: Anticancer human tumor 843126-344-R-J1-PDC patient-derived melanoma cell line growth inhibition [POLQ]
Details: for pIC50: curve of first compound; for viability, T/C: stronger effect = lower value
Procedure, shortened: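 Growth inhibition in 3D: complex spheroids (tumor PDC, HUVEC, MSC) treated with POLQ inhibitor combinations; where Cmax unknown, highest tested concentration 10 microM, except SN-38 at 1 microM.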

[1] = second compound 0.0316 µM, first compound 0.0316 µM
[2] = second compound 0.0316 µM, first compound 0.1 µM
[3] = second compound 0.0316 µM, first compound 0.316 µM
[4] = second compound 0.0316 µM, first compound 1 µM
[5] = second compound 0.0316 µM, first compound 3.16 µM
[6] = second compound 0.0316 µM, first compound 10 µM
[7] = second compound 0.1 µM, first compound 0.0316 µM
[8] = second compound 0.1 µM, first compound 0.1 µM
[9] = second compound 0.1 µM, first compound 0.316 µM
[10] = second compound 0.1 µM, first compound 1 µM
[11] = second compound 0.1 µM, first compound 3.16 µM
[12] = second compound 0.1 µM, first compound 10 µM
[13] = second compound 0.316 µM, first compound 0.0316 µM
[14] = second compound 0.316 µM, first compound 0.1 µM
[15] = second compound 0.316 µM, first compound 0.316 µM
[16] = second compound 0.316 µM, first compound 1 µM
[17] = second compound 0.316 µM, first compound 3.16 µM
[18] = second compound 0.316 µM, first compound 10 µM
[19] = second compound 1 µM, first compound 0.0316 µM
[20] = second compound 1 µM, first compound 0.1 µM
[21] = second compound 1 µM, first compound 0.316 µM
[22] = second compound 1 µM, first compound 1 µM
[23] = second compound 1 µM, first compound 3.16 µM
[24] = second compound 1 µM, first compound 10 µM
[25] = second compound 3.16 µM, first compound 0.0316 µM
[26] = second compound 3.16 µM, first compound 0.1 µM
[27] = second compound 3.16 µM, first compound 0.316 µM
[28] = second compound 3.16 µM, first compound 1 µM
[29] = second compound 3.16 µM, first compound 3.16 µM
[30] = second compound 3.16 µM, first compound 10 µM
[31] = second compound 10 µM, first compound 0.0316 µM
[32] = second compound 10 µM, first compound 0.1 µM
[33] = second compound 10 µM, first compound 0.316 µM
[34] = second compound 10 µM, first compound 1 µM
[35] = second compound 10 µM, first compound 3.16 µM
[36] = second compound 10 µM, first compound 10 µM
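Throughout, for viability, T/C: spheroids exposed to drugs for seven days before readout.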

CCCS(=O)(=O)Nc1ccc(F)c(C(=O)c2c[nH]c3ncc(-c4ccc(Cl)cc4)cc23)c1F + Nc1ccc(C#CCN(C(=O)Cc2ncc(C(F)(F)F)cc2C(F)(F)F)c2ccc(F)cc2)nn1
pIC50 (second compound 0.0316 µM): < 5.00 | pIC50 (second compound 0.1 µM): < 5.00 | pIC50 (second compound 0.316 µM): < 5.00 | pIC50 (second compound 1 µM): < 5.00 | pIC50 (second compound 3.16 µM): < 5.00 | pIC50 (second compound 10 µM): < 5.00 | viability, T/C [1]: 86% | viability, T/C [2]: 92.7% | viability, T/C [3]: 98.9% | viability, T/C [4]: 77.9% | viability, T/C [5]: 77.5% | viability, T/C [6]: 86.7% | viability, T/C [7]: 82% | viability, T/C [8]: 91.8% | viability, T/C [9]: 82.8% | viability, T/C [10]: 82.3% | viability, T/C [11]: 78.1% | viability, T/C [12]: 57.4% | viability, T/C [13]: 85.8% | viability, T/C [14]: 92.8% | viability, T/C [15]: 88.9% | viability, T/C [16]: 87.4% | viability, T/C [17]: 77.5% | viability, T/C [18]: 82% | viability, T/C [19]: 93.5% | viability, T/C [20]: 91.8% | viability, T/C [21]: 71% | viability, T/C [22]: 85.5% | viability, T/C [23]: 77.2% | viability, T/C [24]: 76.2% | viability, T/C [25]: 86.4% | viability, T/C [26]: 105% | viability, T/C [27]: 95.2% | viability, T/C [28]: 78% | viability, T/C [29]: 62.7% | viability, T/C [30]: 63.4% | viability, T/C [31]: 93.3% | viability, T/C [32]: 79.9% | viability, T/C [33]: 79.7% | viability, T/C [34]: 82.3% | viability, T/C [35]: 74% | viability, T/C [36]: 75.4%

C#Cc1c(F)ccc2cc(O)cc(-c3ncc4c(N5CC6CCC(C5)N6)nc(OCC56CCCN5CC(F)C6)nc4c3F)c12 (stereo unspecified) + Nc1ccc(C#CCN(C(=O)Cc2ncc(C(F)(F)F)cc2C(F)(F)F)c2ccc(F)cc2)nn1
pIC50 (second compound 0.0316 µM): < 5.00 | pIC50 (second compound 0.1 µM): < 5.00 | pIC50 (second compound 0.316 µM): < 5.00 | pIC50 (second compound 1 µM): < 5.00 | pIC50 (second compound 3.16 µM): < 5.00 | pIC50 (second compound 10 µM): < 5.00 | viability, T/C [1]: 87.4% | viability, T/C [2]: 95.1% | viability, T/C [3]: 99.8% | viability, T/C [4]: 88.7% | viability, T/C [5]: 121% | viability, T/C [6]: 76.5% | viability, T/C [7]: 106% | viability, T/C [8]: 110% | viability, T/C [9]: 96.7% | viability, T/C [10]: 108% | viability, T/C [11]: 103% | viability, T/C [12]: 84.5% | viability, T/C [13]: 100% | viability, T/C [14]: 91.4% | viability, T/C [15]: 84.5% | viability, T/C [16]: 110% | viability, T/C [17]: 95.1% | viability, T/C [18]: 90.8% | viability, T/C [19]: 107% | viability, T/C [20]: 91.2% | viability, T/C [21]: 91.2% | viability, T/C [22]: 117% | viability, T/C [23]: 109% | viability, T/C [24]: 88.8% | viability, T/C [25]: 89.1% | viability, T/C [26]: 84.2% | viability, T/C [27]: 108% | viability, T/C [28]: 94.5% | viability, T/C [29]: 97.6% | viability, T/C [30]: 82.6% | viability, T/C [31]: 95.3% | viability, T/C [32]: 83.4% | viability, T/C [33]: 86.5% | viability, T/C [34]: 83.6% | viability, T/C [35]: 85.8% | viability, T/C [36]: 79.4%

CC(=O)O[C@H]1C(=O)[C@@]2(C)[C@H]([C@H](OC(=O)c3ccccc3)[C@]3(O)C[C@H](OC(=O)[C@H](O)[C@@H](NC(=O)c4ccccc4)c4ccccc4)C(C)=C1C3(C)C)[C@]1(OC(C)=O)CO[C@@H]1C[C@@H]2O + COC1C(OC(N)=O)C(O)C(Oc2ccc3c(O)c(NC(=O)c4ccc(O)c(CC=C(C)C)c4)c(=O)oc3c2C)OC1(C)C
pIC50 (second compound 0.0316 µM): < 5.52 | pIC50 (second compound 0.1 µM): < 5.52 | pIC50 (second compound 0.316 µM): < 5.52 | pIC50 (second compound 1 µM): < 5.52 | pIC50 (second compound 3.16 µM): < 5.52 | pIC50 (second compound 10 µM): < 5.52 | viability, T/C (second compound 0.0316 µM, first compound 0.00949 µM): 55.4% | viability, T/C (second compound 0.0316 µM, first compound 0.03 µM): 70% | viability, T/C (second compound 0.0316 µM, first compound 0.0949 µM): 56% | viability, T/C (second compound 0.0316 µM, first compound 0.3 µM): 69.8% | viability, T/C (second compound 0.0316 µM, first compound 0.949 µM): 61.2% | viability, T/C (second compound 0.0316 µM, first compound 3 µM): 68.9% | viability, T/C (second compound 0.1 µM, first compound 0.00949 µM): 63.9% | viability, T/C (second compound 0.1 µM, first compound 0.03 µM): 60.9% | viability, T/C (second compound 0.1 µM, first compound 0.0949 µM): 49.1% | viability, T/C (second compound 0.1 µM, first compound 0.3 µM): 55.3% | viability, T/C (second compound 0.1 µM, first compound 0.949 µM): 55.5% | viability, T/C (second compound 0.1 µM, first compound 3 µM): 57.5% | viability, T/C (second compound 0.316 µM, first compound 0.00949 µM): 55.6% | viability, T/C (second compound 0.316 µM, first compound 0.03 µM): 64.6% | viability, T/C (second compound 0.316 µM, first compound 0.0949 µM): 65.5% | viability, T/C (second compound 0.316 µM, first compound 0.3 µM): 57.1% | viability, T/C (second compound 0.316 µM, first compound 0.949 µM): 55.7% | viability, T/C (second compound 0.316 µM, first compound 3 µM): 61.1% | viability, T/C (second compound 1 µM, first compound 0.00949 µM): 60.2% | viability, T/C (second compound 1 µM, first compound 0.03 µM): 59.8% | viability, T/C (second compound 1 µM, first compound 0.0949 µM): 61.6% | viability, T/C (second compound 1 µM, first compound 0.3 µM): 60.4% | viability, T/C (second compound 1 µM, first compound 0.949 µM): 52.5% | viability, T/C (second compound 1 µM, first compound 3 µM): 52.1% | viability, T/C (second compound 3.16 µM, first compound 0.00949 µM): 63.6% | viability, T/C (second compound 3.16 µM, first compound 0.03 µM): 62.2% | viability, T/C (second compound 3.16 µM, first compound 0.0949 µM): 53.8% | viability, T/C (second compound 3.16 µM, first compound 0.3 µM): 57.2% | viability, T/C (second compound 3.16 µM, first compound 0.949 µM): 60.7% | viability, T/C (second compound 3.16 µM, first compound 3 µM): 50.9% | viability, T/C (second compound 10 µM, first compound 0.00949 µM): 65.4% | viability, T/C (second compound 10 µM, first compound 0.03 µM): 55.8% | viability, T/C (second compound 10 µM, first compound 0.0949 µM): 52.9% | viability, T/C (second compound 10 µM, first compound 0.3 µM): 54.6% | viability, T/C (second compound 10 µM, first compound 0.949 µM): 66.1% | viability, T/C (second compound 10 µM, first compound 3 µM): 57.1%
